The structures appear in SMILES notation. pKi: −log10 of the molar value.

GST-tagged-Wee1 kinase, sequence (P30291 whole entry): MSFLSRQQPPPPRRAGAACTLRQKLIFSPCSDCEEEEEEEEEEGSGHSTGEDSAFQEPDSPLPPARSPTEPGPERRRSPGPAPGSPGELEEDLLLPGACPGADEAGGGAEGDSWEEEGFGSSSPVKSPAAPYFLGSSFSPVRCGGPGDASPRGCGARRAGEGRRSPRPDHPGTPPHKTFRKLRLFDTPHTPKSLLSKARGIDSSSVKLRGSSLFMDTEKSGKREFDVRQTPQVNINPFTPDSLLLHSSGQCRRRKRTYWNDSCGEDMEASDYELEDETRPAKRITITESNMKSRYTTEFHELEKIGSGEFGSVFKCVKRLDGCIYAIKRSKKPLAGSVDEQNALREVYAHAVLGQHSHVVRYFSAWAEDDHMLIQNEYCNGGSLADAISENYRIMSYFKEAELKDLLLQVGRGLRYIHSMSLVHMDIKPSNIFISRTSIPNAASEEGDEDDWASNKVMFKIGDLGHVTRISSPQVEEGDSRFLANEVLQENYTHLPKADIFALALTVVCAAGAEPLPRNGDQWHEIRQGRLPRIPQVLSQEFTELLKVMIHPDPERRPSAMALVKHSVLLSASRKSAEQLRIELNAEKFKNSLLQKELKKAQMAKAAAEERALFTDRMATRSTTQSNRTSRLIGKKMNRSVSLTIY

The test concerns the target GST-tagged-Wee1 kinase (Homo sapiens, UniProt P30291). Briefly: Wee1 time-resolved fluorescence equilibrium binding assay (displacement of Oregon Green-labeled ATP-competitive kinase probe). As to the method:
Wee1 kinase was assayed using a time-resolved fluorescence equilibrium binding assay monitoring displacement of a rapidly reversible Oregon Green-labeled ATP-competitive kinase probe (N-(2-(2-(2-(4-(4-(5-chloro-4-(2-(1-hydroxycyclobutyl)thiazol-5-yl)-1H-pyrrolo[2,3-b]pyridin-2-yl)phenyl)piperazin-1-yl)ethoxy)ethoxy)ethyl)-2′,7′-difluoro-3′,6′-dihydroxy-3-oxo-3H-spiro[isobenzofuran-1,9′-xanthene]-5-carboxamide) by competitive Wee1 inhibitors.
With `CN1CCN(c2ccc(Nc3ncc4c(=O)n(-c5c(Cl)cccc5Cl)nc(-c5cccc(NNc6c(Cl)cccc6Cl)n5)c4n3)cc2)CC1` [Example 76, 6-(2,6-dichlorophenyl)-8-{6-[2-(2,6-dichlorophenyl)hydrazino]pyridin-2-yl}-2-{[4-(4-methylpiperazin-1-yl)phenyl]amino}pyrimido[4,5-d]pyridazin-5(6H)-one], the negative logarithm of the Ki (pKi) is 8.40.

Turning to `Cc1nn(-c2c(F)cccc2Cl)c(=O)c2cnc(Nc3ccc4c(c3)CNCC4)nc12` [Example 398, 6-(2-chloro-6-fluorophenyl)-8-methyl-2-(1,2,3,4-tetrahydroisoquinolin-7-ylamino)pyrimido[4,5-d]pyridazin-5(6H)-one], the negative logarithm of the Ki (pKi) is 9.00.

For `CCOc1ncccc1-c1nn(-c2ccccc2)c(=O)c2cnc(Nc3ccc(N4CCN(C)CC4)cc3)nc12` [Example 79, 8-(2-ethoxypyridin-3-yl)-2-{[4-(4-methylpiperazin-1-yl)phenyl]amino}-6-phenylpyrimido[4,5-d]pyridazin-5(6H)-one], the pKi is 6.15.

`CN1Cc2cc(Nc3ncc4c(=O)n(-c5c(Cl)cccc5Cl)nc(-c5ccccn5)c4n3)ccc2C(C)(C)C1` [Example 241, 6-(2,6-dichlorophenyl)-8-(pyridin-2-yl)-2-[(2,4,4-trimethyl-1,2,3,4-tetrahydroisoquinolin-7-yl)amino]pyrimido[4,5-d]pyridazin-5(6H)-one]: the pKi was 10.00.

Molecule `CCc1nn(-c2c(Cl)cccc2Cl)c(=O)c2cnc(Nc3ccc4c(c3)CN(C)CC4)nc12` [Example 493, 6-(2,6-dichlorophenyl)-8-ethyl-2-[(2-methyl-1,2,3,4-tetrahydroisoquinolin-7-yl)amino]pyrimido[4,5-d]pyridazin-5(6H)-one] had a pKi of 9.07.

As for `Cc1nn(-c2ncccc2Cl)c(=O)c2cnc(Nc3ccc4c(c3)CNCC43CC3)nc12` [Example 349, 6-(3-chloropyridin-2-yl)-2-(2′,3′-dihydro-1′H-spiro[cyclopropane-1,4′-isoquinolin]-7′-ylamino)-8-methylpyrimido[4,5-d]pyridazin-5(6H)-one], the negative logarithm of the Ki (pKi) was 9.30.

Consider `CN1Cc2cc(Nc3ncc4c(=O)n(-c5c(Cl)cccc5Cl)nc(-c5cnn(C)c5)c4n3)ccc2C2(CC2)C1` [Example 149, 6-(2,6-dichlorophenyl)-2-[(2′-methyl-2′,3′-dihydro-1′H-spiro[cyclopropane-1,4′-isoquinolin]-7′-yl)amino]-8-(1-methyl-1H-pyrazol-4-yl)pyrimido[4,5-d]pyridazin-5(6H)-one], for which the pKi was 10.30.

`C=CCn1nc(-c2cccs2)c2nc(Nc3ccc4c(c3)CN(C)CC4)ncc2c1=O` [Example 162, 6-allyl-2-[(2-methyl-1,2,3,4-tetrahydroisoquinolin-7-yl)amino]-8-(2-thienyl)pyrimido[4,5-d]pyridazin-5(6H)-one] gave a pKi of 8.40.

For `CN1CCN(c2ccc(Nc3ncc4c(=O)n(-c5c(Cl)cccc5Cl)nc(-c5cncn5C)c4n3)cc2)CC1` [Example 203, 6-(2,6-dichlorophenyl)-8-(1-methyl-1H-imidazol-5-yl)-2-{[4-(4-methylpiperazin-1-yl)phenyl]amino}pyrimido[4,5-d]pyridazin-5(6H)-one], the pKi was 9.70.

Regarding `O=c1c2cnc(Nc3ccc(N4CCNCC4)cc3)nc2c(C2CCC2)nn1-c1c(Cl)cccc1Cl` [Example 279, 8-cyclobutyl-6-(2,6-dichlorophenyl)-2-{[4-(piperazin-1-yl)phenyl]amino}pyrimido[4,5-d]pyridazin-5(6H)-one], the pKi was 8.92.

In turn, `Cc1cccc(Cl)c1-n1nc(C)c2nc(Nc3ccc4c(c3)CN(CCO)CC4)ncc2c1=O` [Example 499, 6-(2-chloro-6-methylphenyl)-2-{[2-(2-hydroxyethyl)-1,2,3,4-tetrahydroisoquinolin-7-yl]amino}-8-methylpyrimido[4,5-d]pyridazin-5(6H)-one] had a pKi of 9.68.

`O=c1c2cnc(Nc3ccc4c(c3)CNCC43CC3)nc2c(-c2cncs2)nn1-c1c(Cl)cccc1Cl` [Example 315, 6-(2,6-dichlorophenyl)-2-(2′,3′-dihydro-1′H-spiro[cyclopropane-1,4′-isoquinolin]-7′-ylamino)-8-(1,3-thiazol-5-yl)pyrimido[4,5-d]pyridazin-5(6H)-one] gave a pKi of 8.72.

As to `COCc1nn(-c2c(Cl)cccc2Cl)c(=O)c2cnc(Nc3ccc4c(c3)CNCC43CC3)nc12` [Example 428, 6-(2,6-dichlorophenyl)-2-(2′,3′-dihydro-1′H-spiro[cyclopropane-1,4′-isoquinolin]-7′-ylamino)-8-(methoxymethyl)pyrimido[4,5-d]pyridazin-5(6H)-one], the pKi is 9.62.

`CN1Cc2cc(Nc3ncc4c(=O)n(-c5ccccc5Cl)nc(-c5ccccc5)c4n3)ccc2C2(CC2)C1` [Example 53, 6-(2-chlorophenyl)-2-[(2′-methyl-2′,3′-dihydro-1′H-spiro[cyclopropane-1,4′-isoquinolin]-7′-yl)amino]-8-phenylpyrimido[4,5-d]pyridazin-5(6H)-one]: the negative-log Ki (pKi) is 10.00.

In the case of `C=CCn1nc(-c2cccs2)c2nc(Nc3ccc(N4CCN(C(C)C)CC4)cc3)ncc2c1=O` [Example 126, 6-allyl-2-{[4-(4-isopropylpiperazin-1-yl)phenyl]amino}-8-(2-thienyl)pyrimido[4,5-d]pyridazin-5(6H)-one], the pKi is 8.22.

Consider `Cc1nn(-c2c(Cl)cccc2Cl)c(=O)c2cnc(Nc3ccc(N4CCN(C5COC5)CC4)cc3)nc12` [Example 445, 6-(2,6-dichlorophenyl)-8-methyl-2-({4-[4-(oxetan-3-yl)piperazin-1-yl]phenyl}amino)pyrimido[4,5-d]pyridazin-5(6H)-one], for which the pKi was 9.48.

`CCc1nn(-c2c(Cl)cccc2Cl)c(=O)c2cnc(Nc3ccc4c(c3)CCN(C)C4(C)C)nc12` [Example 460, 6-(2,6-dichlorophenyl)-8-ethyl-2-[(1,1,2-trimethyl-1,2,3,4-tetrahydroisoquinolin-6-yl)amino]pyrimido[4,5-d]pyridazin-5(6H)-one] had a pKi of 9.49.

In turn, `Cc1ccccc1-n1nc(-c2ccccc2)c2nc(Nc3ccc4c(c3)CN(C)CC4)ncc2c1=O` [Example 171, 6-(2-methylphenyl)-2-[(2-methyl-1,2,3,4-tetrahydroisoquinolin-7-yl)amino]-8-phenylpyrimido[4,5-d]pyridazin-5(6H)-one] showed a pKi of 9.22.

Consider `CN1CCN(c2ccc(Nc3ncc4c(=O)n(-c5ccccc5Cl)nc(-c5cccc(Br)c5)c4n3)cc2)CC1` [Example 65, 8-(3-bromophenyl)-6-(2-chlorophenyl)-2-{[4-(4-methylpiperazin-1-yl)phenyl]amino}pyrimido[4,5-d]pyridazin-5(6H)-one], for which the negative-log Ki (pKi) is 9.00.

In the case of `Cc1ccccc1-n1nc(CCc2ccccc2)c2nc(Nc3ccc(N4CCN(C)CC4)cc3)ncc2c1=O` [Example 12, 6-(2-methylphenyl)-2-{[4-(4-methylpiperazin-1-yl)phenyl]amino}-8-(2-phenylethyl)pyrimido[4,5-d]pyridazin-5(6H)-one], the pKi is 8.22.

Take `Cc1nn(-c2c(Cl)cccc2Cl)c(=O)c2cnc(Nc3ccc4c(c3)CCN(C)C4(C)C)nc12` [Example 453, 6-(2,6-dichlorophenyl)-8-methyl-2-[(1,1,2-trimethyl-1,2,3,4-tetrahydroisoquinolin-6-yl)amino]pyrimido[4,5-d]pyridazin-5(6H)-one]: the negative logarithm of the Ki (pKi) is 9.44.

`COC(=O)c1cccc(-c2nn(-c3c(Cl)cccc3Cl)c(=O)c3cnc(Nc4ccc(N5CCN(C)CC5)cc4)nc23)c1` [Example 188, methyl 3-[6-(2,6-dichlorophenyl)-2-{[4-(4-methylpiperazin-1-yl)phenyl]amino}-5-oxo-5,6-dihydropyrimido[4,5-d]pyridazin-8-yl]benzoate] gave a pKi of 9.00.

Turning to `Cc1nn(-c2ncccc2Cl)c(=O)c2cnc(Nc3ccc4c(c3)CNCC4)nc12` [Example 400, 6-(3-chloropyridin-2-yl)-8-methyl-2-(1,2,3,4-tetrahydroisoquinolin-7-ylamino)pyrimido[4,5-d]pyridazin-5(6H)-one], the pKi is 8.17.

Take `CN1CCc2ccc(Nc3ncc4c(=O)n(-c5c(Cl)cccc5Cl)nc(C(F)F)c4n3)cc2C1` [Example 475, 6-(2,6-dichlorophenyl)-8-(difluoromethyl)-2-[(2-methyl-1,2,3,4-tetrahydroisoquinolin-7-yl)amino]pyrimido[4,5-d]pyridazin-5(6H)-one]: the pKi was 9.62.

As to `CCc1nn(-c2c(Cl)cccc2Cl)c(=O)c2cnc(Nc3ccc4c(c3)CC(N(C)C)C4)nc12` (centres unmarked) [Example 406, 6-(2,6-dichlorophenyl)-2-{[2-(dimethylamino)-2,3-dihydro-1H-inden-5-yl]amino}-8-ethylpyrimido[4,5-d]pyridazin-5(6H)-one], the pKi is 9.15.

Take `Cc1cc(Nc2ncc3c(=O)n(-c4c(Cl)cccc4Cl)nc(-c4ccn(C)n4)c3n2)ccc1N1CCCN(C)CC1` [Example 152, 6-(2,6-dichlorophenyl)-2-{[3-methyl-4-(4-methyl-1,4-diazepan-1-yl)phenyl]amino}-8-(1-methyl-1H-pyrazol-3-yl)pyrimido[4,5-d]pyridazin-5(6H)-one]: the pKi is 10.40.

Consider `Cc1cccc(-c2nn(-c3ccccc3C)c(=O)c3cnc(Nc4ccc(N5CCN(C)CC5)cc4)nc23)c1` [Example 52, 6-(2-methylphenyl)-8-(3-methylphenyl)-2-{[4-(4-methylpiperazin-1-yl)phenyl]amino}pyrimido[4,5-d]pyridazin-5(6H)-one], for which the pKi is 9.00.

Consider `CC(C)N1CCCC(c2nn(-c3c(Cl)cccc3Cl)c(=O)c3cnc(Nc4ccc(N5CCN(C)CC5)cc4)nc23)C1` (centres unmarked) [Example 147, 6-(2,6-dichlorophenyl)-8-(1-isopropylpiperidin-3-yl)-2-{[4-(4-methylpiperazin-1-yl)phenyl]amino}pyrimido[4,5-d]pyridazin-5(6H)-one], for which the pKi is 7.92.

With `C=CCn1nc(CCC)c2nc(Nc3ccc(N4CCN(C)CC4)cc3)ncc2c1=O` [Example 16, 6-allyl-2-{[4-(4-methylpiperazin-1-yl)phenyl]amino}-8-propylpyrimido[4,5-d]pyridazin-5(6H)-one], the pKi is 6.89.

As usually defined, the pKi is the negative decadic logarithm of the Ki, by convention in mol/L. A high value points to a low Ki.
